{"source": "patent US20240358015A1", "about": "“HERBICIDAL COMPOSITIONS” (Agrematch Ltd., priority 2021, published 2024)", "key": {"[1]": {"test_system": "Setaria viridis", "assay": "Growth-chamber post-emergence herbicidal assay (Example 2)", "format": "in vivo", "conditions": "1000 g/ha, 3-4 days after application", "experimental": "Herbicidal activity was determined by post-emergence application on 8-day old plants (weeds) of the Amaranthus palmeri and Setaria viridis species that were grown at 16 hours/8 hours day/night cycles at 30° C./25° C., respectively. Leaf stage was typically 4-6 for A. palmeri and 3-4 for S. viridis.\nIn each treatment, 2-3 pots, each containing about 5 plants each (for Setaria viridis), and one 9-pack, containing about 9 plants (for Amaranthus palmeri), were sprayed using a VL-SET Paasche Airbrush with 0.3-1.5 ml solution containing 0.125-2 mg/ml of a tested compound, which is equivalent to about 125-2000 g/ha.\n(§1) Damage assessment: Herbicidal activity was assessed and scored 3-4 days after application by visual inspection of the plants in comparison to plants treated with the formulation alone (with no active ingredient) as control. Activity score is in the range of 0 to 100, where 0 represents no herbicidal activity like control plants and 100 represents the maximal herbicidal activity (i.e., total death of the plant).\nHerbicidal activity scores 3-4 days after application are presented Table 3 below."}, "[2]": {"test_system": "B. cinerea", "assay": "PDA plate fungicidal assay (Example 4)", "format": "cell-based, Botrytis cinerea", "conditions": "average of two plates", "experimental": "Compound 1 was dissolved in 0.05 M Tris buffer pH=8 to a concentration of 4 mg/ml, and then diluted with a sterile PDA solution to final concentrations of 40 and 400 μg/ml. 10 ml of each solution were poured to a 100 mm petri dish and left to cool down. A 0.5 cm diameter agar disc inoculated with 3-day old B. cinerea hypha was placed upside down in the center of each PDA plate. Each treatment contained two repeats (two plates). Plates were incubated at 21° C. for 4 days. Fungicidal activity was scored by measuring the radial growth area of the hypha. Results were recorded 2-4 days after inoculation (DAI). % growth inhibition was calculated relative to control treatment without Compound 1."}, "[3]": {"test_system": "Amaranthus palmeri", "assay": "Growth-chamber post-emergence assay, low application rates (Example 5)", "format": "in vivo", "experimental": "(§2) Herbicidal activity of Compound 1 was determined by post-emergence application on 8-day old plants (weeds) of the Amaranthus palmeri and Setaria viridis species that were grown at 16 hours/8 hours day/night cycles at 30° C./25° C., respectively. Leaf stage was typically 4-6 for A. palmeri and 3-4 for S. viridis.\n(§3) In each treatment, between 1 to 3 pots (8×12 cm), containing about 6 Amaranthus palmeri or Setaria viridis plants, were sprayed using a VL-SET Paasche Airbrush with a 1 ml-solution containing 0.1-0.375 mg/ml of the tested compound, which is equivalent to about 100-375 g/ha.\nas §1"}, "[4]": {"test_system": "Setaria viridis", "assay": "Growth-chamber post-emergence assay, low application rates (Example 5)", "format": "in vivo", "experimental": "as §2, §3, §1"}, "[5]": {"test_system": "Amaranthus palmeri", "assay": "Net-house post-emergence assay (Example 6)", "format": "in vivo", "conditions": "750 g/ha, 0.05% MIPA", "experimental": "Post-emergence herbicidal activity was tested on Amaranthus palmeri weeds species that were grown in a net-house. Average daily minimum and maximum temperatures during the assay were 20.5° C./[…], respectively. Leaf stage at the time of application was 3-4. In each treatment, 3 flowerpots (7 cm×7 cm×6 cm) containing about 3-6 plants, were sprayed using a VL-SET Paasche Airbrush with a […] 0.75 mg/ml of the tested compound, which is equivalent to 750 g/ha.\nDamage assessment: Herbicidal activity was assessed and scored 1-12 days after application by visual inspection of the plants in comparison to plants treated with the formulation alone (with no active ingredient) as control. Activity score is in the range of 0 to 100, where 0 represents no herbicidal activity like control plants and 100 represents the maximal herbicidal activity (i.e., total death of the plant)."}, "[6]": {"test_system": "S. viridis", "assay": "Growth-chamber post-emergence assay on various weed species (Example 7)", "format": "in vivo, Setaria viridis", "conditions": "0.05% Break-Thru", "experimental": "(§4) Herbicidal activity of Compound 1 was determined by post-emergence application on various weed species. 8-14 day old plants (weeds) were grown at 16 hours/8 hours day/night cycles at 30° C./25° C., respectively. Leaf stage was typically 2-6.\n(§5) In each treatment, 3 pots (either 7×7 or 8×12 cm), containing about 3-6 plants each, were sprayed using a VL-SET Paasche Airbrush with a 1-1.5 ml-solution containing 0.5-1.5 mg/ml of the tested compound, which is equivalent to about 500-1500 g/ha.\nas §1"}, "[7]": {"test_system": "S. nigrum", "assay": "Growth-chamber post-emergence assay on various weed species (Example 7)", "format": "in vivo, Solanum nigrum", "conditions": "0.05% Break-Thru", "experimental": "as §4, §5, §1"}, "[8]": {"conditions": "125 g/ha, 0.8% MIPA, 0.25% Genapol, 2% DASH EC"}, "[9]": {"conditions": "125 g/ha, 0.8% MIPA, 2% DASH EC"}, "[10]": {"conditions": "150 g/ha, 0.8% MIPA, 0.25% Genapol, 1% AGNIQUE, 0.05% Ca-LAS, 0.02% BSU"}, "[11]": {"conditions": "150 g/ha, 0.8% MIPA, 0.25% Genapol, 2% HASTEN"}, "[12]": {"conditions": "200 g/ha, 0.21% MIPA, 0.25% Genapol, 1% AGNIQUE, 0.05% Ca-LAS, 0.02% BSU"}, "[13]": {"conditions": "200 g/ha, 0.8% MIPA, 0.25% Genapol, 1% AGNIQUE, 0.05% Ca-LAS, 0.02% BSU"}, "[14]": {"conditions": "375 g/ha, 0.8% MIPA, 0.25% Genapol, 1% AGNIQUE, 0.05% Ca-LAS, 0.02% BSU"}, "[15]": {"conditions": "375 g/ha, 0.8% MIPA, 2% TWEEN20, 1% AGNIQUE, 0.05% Ca-LAS, 0.02% BSU, 0.05% Break-Thru, 3-4 days after application, scale 0-100"}, "[16]": {"conditions": "750 g/ha, 0.2% MIPA, 2% TWEEN20, 1% AGNIQUE, 0.05% Ca-LAS, 0.02% BSU"}, "[17]": {"conditions": "1500 g/ha, 0.8% MIPA, 0.25% Genapol, 2% HASTEN"}}, "data": [{"smiles": "O=C(O)c1cc(O)c2c(c1)C(=O)c1cccc(O)c1C2=O", "note": "[Compound 1, Rhein]", "values": [{"measurement": "Herbicidal activity score", "setting": "[1]; 1 mg/ml in 0.015% Ammonium hydroxide, 0.25% Adsee", "value": 10}, {"measurement": "Herbicidal activity score", "setting": "[1]; 1 mg/ml in 0.015% Ammonium hydroxide, 0.25% Genapol X-080", "value": 70}, {"measurement": "Herbicidal activity score", "setting": "[1]; 1 mg/ml in 0.015% Ammonium hydroxide, 0.7% Sodium Lauryl Ether sulfate", "value": 100}, {"measurement": "Herbicidal activity score", "setting": "[1]; 1 mg/ml in 0.015% Ammonium hydroxide, 1% AGNIQUE, 0.05% Ca-LAS, 0.02% BSU", "value": 70}, {"measurement": "Herbicidal activity score", "setting": "[1]; 1 mg/ml in 0.015% Ammonium hydroxide, 2% Tween 20, scale 0-100", "value": 80}, {"measurement": "Herbicidal activity score", "setting": "[1]; 1 mg/ml in 0.037% MIPA, 0.25% Adsee", "value": 40}, {"measurement": "Herbicidal activity score", "setting": "[1]; 1 mg/ml in 0.037% MIPA, 0.25% Genapol X-080", "value": 100}, {"measurement": "Herbicidal activity score", "setting": "[1]; 1 mg/ml in 0.037% MIPA, 0.7% Sodium Lauryl Ether sulfate", "value": 100}, {"measurement": "Herbicidal activity score", "setting": "[1]; 1 mg/ml in 0.037% MIPA, 1% AGNIQUE, 0.05% Ca-LAS, 0.02% BSU", "value": 70}, {"measurement": "Herbicidal activity score", "setting": "[1]; 1 mg/ml in 0.037% MIPA, 2% Tween 20", "value": 100}, {"measurement": "Activity Score", "setting": "[1]; 2% TWEEN 20, 5.2 mM Ammonium hydroxide, 0.05% Break-Thru, scale 0-100", "value": 90}, {"measurement": "% growth inhibition (radial growth area of the hypha, relative to control)", "setting": "[2]; 40 μg/ml in PDA, 2 DAI", "value": 61, "unit": "%"}, {"measurement": "% growth inhibition (radial growth area of the hypha, relative to control)", "setting": "[2]; 40 μg/ml in PDA, 3 DAI", "value": 82, "unit": "%"}, {"measurement": "% growth inhibition (radial growth area of the hypha, relative to control)", "setting": "[2]; 40 μg/ml in PDA, 4 DAI", "value": 86, "unit": "%"}, {"measurement": "% growth inhibition (radial growth area of the hypha, relative to control)", "setting": "[2]; 400 μg/ml in PDA, 2 DAI", "value": 82, "unit": "%"}, {"measurement": "% growth inhibition (radial growth area of the hypha, relative to control)", "setting": "[2]; 400 μg/ml in PDA, 3 DAI", "value": 88, "unit": "%"}, {"measurement": "% growth inhibition (radial growth area of the hypha, relative to control)", "setting": "[2]; 400 μg/ml in PDA, 4 DAI", "value": 83, "unit": "%"}, {"measurement": "Herbicidal activity score", "setting": "[3]; 100 g/ha, 0.8% MIPA, 0.25% Genapol, 2% DASH EC", "value": 90}, {"measurement": "Herbicidal activity score", "setting": "[3]; [8]", "value": 93}, {"measurement": "Herbicidal activity score", "setting": "[3]; [9]", "value": 65}, {"measurement": "Herbicidal activity score", "setting": "[3]; [10]", "value": 85}, {"measurement": "Herbicidal activity score", "setting": "[3]; [11]", "value": 85}, {"measurement": "Herbicidal activity score", "setting": "[3]; [12]", "value": 93}, {"measurement": "Herbicidal activity score", "setting": "[3]; [13]", "value": 98}, {"measurement": "Herbicidal activity score", "setting": "[3]; 250 g/ha, 0.02% MIPA, 2% TWEEN20, 2% AGNIQUE, 0.1% Ca-LAS, 0.04% BSU, 0.05% Break-Thru", "value": 90}, {"measurement": "Herbicidal activity score", "setting": "[3]; [14]", "value": 97}, {"measurement": "Herbicidal activity score", "setting": "[3]; [15]", "value": 100}, {"measurement": "Herbicidal activity score", "setting": "[4]; [8]", "value": 23}, {"measurement": "Herbicidal activity score", "setting": "[4]; [9]", "value": 43}, {"measurement": "Herbicidal activity score", "setting": "[4]; [10]", "value": 70}, {"measurement": "Herbicidal activity score", "setting": "[4]; [11]", "value": 65}, {"measurement": "Herbicidal activity score", "setting": "[4]; [12]", "value": 65}, {"measurement": "Herbicidal activity score", "setting": "[4]; [13]", "value": 88}, {"measurement": "Herbicidal activity score", "setting": "[4]; [14]", "value": 78}, {"measurement": "Herbicidal activity score", "setting": "[4]; [15]", "value": 75}, {"measurement": "Herbicidal activity score", "setting": "[5]; 2% Hasten, 0.05% Break-Thru, 1 DAT", "value": 95}, {"measurement": "Herbicidal activity score", "setting": "[5]; 2% Hasten, 0.05% Break-Thru, 3 DAT", "value": 95}, {"measurement": "Herbicidal activity score", "setting": "[5]; 2% Hasten, 0.05% Break-Thru, 5 DAT", "value": 90}, {"measurement": "Herbicidal activity score", "setting": "[5]; 2% Hasten, 0.05% Break-Thru, 7 DAT", "value": 90}, {"measurement": "Herbicidal activity score", "setting": "[5]; 2% Hasten, 0.05% Break-Thru, 12 DAT", "value": 80}, {"measurement": "Herbicidal activity score", "setting": "[5]; 2% TWEEN20, 0.05% Break-Thru, 1 DAT, scale 0-100", "value": 95}, {"measurement": "Herbicidal activity score", "setting": "[5]; 2% TWEEN20, 0.05% Break-Thru, 3 DAT", "value": 100}, {"measurement": "Herbicidal activity score", "setting": "[5]; 2% TWEEN20, 0.05% Break-Thru, 5 DAT", "value": 100}, {"measurement": "Herbicidal activity score", "setting": "[5]; 2% TWEEN20, 0.05% Break-Thru, 7 DAT", "value": 100}, {"measurement": "Herbicidal activity score", "setting": "[5]; 2% TWEEN20, 0.05% Break-Thru, 12 DAT", "value": 100}, {"measurement": "Herbicidal activity score", "setting": "[6]; 500 g/ha, 0.8% MIPA, 0.25% Genapol, 1% AGNIQUE, 0.05% Ca-LAS, 0.02% BSU", "value": 70}, {"measurement": "Herbicidal activity score", "setting": "[6]; [16]", "value": 70}, {"measurement": "Herbicidal activity score", "setting": "[6]; [17]", "value": 100}, {"measurement": "Herbicidal activity score", "setting": "[7]; [16]", "value": 95}, {"measurement": "Herbicidal activity score", "setting": "[7]; [17]", "value": 100}]}]}
